{"source": "patent US9522124B2", "about": "“Methods for treating Alzheimer's disease” (Wisconsin Alumni Research Foundation, priority 2011, dated 2016)", "key": {"[1]": {"tested_on": "histone acetyltransferase p300/CBP", "assay": "In vitro activity of histone acetyltransferase p300/CBP", "type": "biochemical", "settings": "data not shown"}, "BACE1 [2]": {"tested_on": "BACE1", "assay": "Western blot assessment of BACE1 levels in H4 cell lysates", "type": "cell-based, human", "settings": "H4 cells, 48 hours", "procedure": "(§1) Western blotting was performed on a 4-12% Bis-Tris SDS-PAGE system (NuPAGE; Invitrogen, Carlsbad, Calif., USA) as described previously (Costantini et al., 2006; Jonas et al., 2008; Jonas et al., 2010; Ko and Puglielli, 2007; Ko and Puglielli, 2009; Pehar et al., 2010). The following antibodies were used in this study: anti-acetylated lysine (monoclonal; cat. no. ab409; Abcam, Cambridge, Mass., USA); anti-BACE1 (polyclonal; cat. no. ab2077; Abcam); anti-Myc (monoclonal; cat. no. sc-40; santa cruz, Santa Cruz, Calif., USA); anti-ATases/NAT8 (polyclonal; cat. no. AP4957c; Abgent, San Diego, Calif., USA); anti-actin (monoclonal; cat. no. A1978; Sigma, St Louis, Mo., USA); anti-C99 (monoclonal; cat. no. M066-3; MBL, Woburn, Mass., USA); anti-acetylated H3 (polyclonal; cat. no. 06-599, Millipore, Billerica, Mass.); anti-acetylated H4 (polyclonal; cat. no. 06-866, Millipore, Billerica, Mass.); anti-αPCNA (polyclonal; cat. no. AP2835b, Abgent, San Diego, Calif., USA).\nSamples were imaged with classical chemiluminescence and with the LiCor Odyssey Infrared Imaging System (LI-COR Biosciences, Lincoln, Nebr., USA). For chemiluminescent detection, HRP-conjugated anti-mouse or anti-rabbit secondary antibodies were used at 1:6000 dilution in 3% BSA/TBST (GE Healthcare). Detection was performed with either Lumiglo (KPL) or ECL Plus (GE Healthcare). For infrared imaging, goat anti-rabbit Alexa Fluor 680-conjugated secondary antibodies were used.\nTo assess their biological effects, we treated human neuroglioma (H4) cells with 10 μM of both compounds. […] This might reflect different kinetics of inhibition as well as different IC50s (see FIG. 2). Alternatively, it might also be explained by different cell-permeability properties. In fact, the cLog P for compound 9 and 19 is 5.03 and 3.19, respectively. The cLog P (or partition coefficient) is an indication of partition properties of a compound between hydrophobic and hydrophilic compartments. Higher values indicate preferential distribution in hydrophobic environments and, as such, increased permeability across biological membranes."}, "APP695/swe mice": {"tested_on": "APP695/swe mice", "assay": "Long-term potentiation in hippocampal brain slices of treated mice", "type": "in vivo, mouse", "settings": "50 mg/kg/day in diet, 4 months", "procedure": "FIG. 15. Compound 9 prevents synaptic deficits in APP695/swe mice. Non-Transgenic (Non-Tg) and APP695/swe mice were fed a diet containing 50 mg/kg/day of compound 9 for 4 months prior to synaptic assessment. Compound 9 prevented the severe deficits of the late component of long term potentiation (LTP) that characterizes the APP695/swe phenotype (A). […] Field excitatory postsynaptic potential (fEPSP) as percent of baseline (100) is shown as a function of time. Calibration: 1 mV, 1 ms. All values are mean±SEM. *P<0.0001.\nIn order to assess disease-relevant functions, we performed a pilot study with APP695/swe mice, a commonly-used mouse model of AD. APP695/swe mice express a modified mouse APP cDNA encoding the 695-amino acid isoform with a “humanized” Aβ domain that includes the familial AD-associated Swedish double mutation. APP695/swe mice develop synaptic deficits at 3-5 months of age, well before any sign of neurodegeneration can be observed. The cognitive deficits as well as the amyloid plaques can be detected only later, at approximately 12-18 months of age (reviewed in Duyckaerts, et al., 2008).\nA group of non-transgenic and APP695/swe mice were fed a diet containing 50 mg/kg/day of compound 9. Treatment started at weaning (˜6 weeks of age) and lasted 4 months. […]"}, "BACE1 [3]": {"tested_on": "BACE1", "assay": "Western blot of BACE1 in brain tissue homogenates of APP695/swe mice", "type": "in vivo, mouse", "settings": "50 mg/kg/day in diet, 4 months", "procedure": "FIG. 16. Compound 9 decreases levels of BACE1 in brain tissue homogenates of APP695/swe transgenic mice. Compound 9 was administered to select transgenic mice for four months, beginning at weaning, with additional transgenic mice used as controls. Brain tissue homogenates were obtained from sacrificed transgenic mice and Western blot assessment of BACE1 in brain tissue homogenates was performed.\nA group of non-transgenic and APP695/swe mice were fed a diet containing 50 mg/kg/day of compound 9. Treatment started at weaning (˜6 weeks of age) and lasted 4 months. At the end of treatment, the animals were sacrificed and the electrophysiological properties of hippocampal brain slices (as induced by theta burst stimulation to the Schaffer collaterals) were studied."}, "[4]": {"tested_on": "cytosolic and nuclear proteins, histone proteins H3 and H4", "assay": "Lysine acetylation profile of cytosolic and nuclear proteins in H4 cells", "type": "cell-based, human", "settings": "48 hours", "procedure": "FIG. 8. […] (A and B) H4 cells were treated with either compound 9 or 19 for 48 hours prior to Western blot assessment of the acetylation profile of cytosolic (A) and nuclear (B) proteins. (C) The nuclear fraction used in (B) was also used to assess the lysine acetylation profile of the histone proteins H3 and H4.\nas §1\nCytosolic and nuclear extracts were prepared as described before (Ko and Puglielli, 2007). For cytosolic extracts, cells were homogenized in homogenization buffer containing 25 mM Tris-HCl, pH 7.4, 0.5 mM EDTA, 0.5 mM EGTA, and a protease inhibitor mixture. The homogenates were centrifuged at 14,000×g for 15 min, and supernatants were collected as cytosolic proteins.\nFor nuclear extracts cells were scraped into ice-cold phosphate-buffered saline and collected by centrifugation. The cell pellets were suspended in 3 volumes of lysis buffer (20 mM Hepes, pH 7.9, 10 mM KCl, 1 mM EDTA, pH 8.0, 0.2% Nonidet P-40, 10% glycerol, and a protease inhibitor mixture) followed by incubation on ice for 10 min. Cell suspensions were gently pipetted up and down; the lysates were then centrifuged at 14,000×g for 5 min at 4° C. to obtain nuclear pellets. Nuclear pellets were washed twice with cell lysis buffer (lacking Nonidet P-40 and protease inhibitor mixture) and then resuspended in 2 volumes of nuclear extract buffer (20 mM Hepes, pH 7.9, 10 mM KCl, 1 mM EDTA, pH 8.0, 420 mM NaCl, 20% glycerol, and a protease inhibitor mixture). The nuclei were extracted by incubation at 4° C. for 30 min with gentle agitation followed by centrifugation at 14,000×g at 4° C. for 5 min; the resultant supernatant fraction was used as a nuclear extract."}}, "data": [{"compound": "O=c1c(Cl)c2oc3ccccc3nc-2c2ccccc12", "note": "[Compound 9]", "values": [{"measurement": "inhibition of in vitro activity of p300/CBP", "setting": "[1]", "result": "neither compound inhibited"}, {"measurement": "levels of BACE1", "setting": "BACE1 [2]; 10 μM", "result": "significant reduction"}, {"measurement": "levels of BACE1 with increasing concentrations", "setting": "BACE1 [2]; increasing concentrations", "result": "dose-dependent decrease"}, {"measurement": "defect in late component of long-term potentiation (LTP)", "setting": "APP695/swe mice; APP695/swe mice", "result": "drastically prevented"}, {"measurement": "effect on LTP in non-transgenic mice", "setting": "APP695/swe mice; non-transgenic mice", "result": "no effect was observed"}, {"measurement": "BACE1 levels in brain homogenates", "setting": "BACE1 [3]", "result": "marked reduction"}, {"measurement": "acetylation profile of cytosolic and nuclear proteins", "setting": "[4]", "result": "Neither compound 9 nor compound 19 produced significant changes"}, {"measurement": "acetylation profile of the histone protein H3 and H4", "setting": "[4]; nuclear fraction", "result": "slight reduction"}]}]}
